Reference: the supplement of paper PMC10307832

How the values were obtained:
Assay in all cases: relative viability (nuclei count vs DMSO), 5 days (fraction); higher = more cells survive
[1] = compound: CC1CC(=O)N(C2=CN=C(N=C2N1C3CCCC3)NC4=C(C=C(C=C4)C(=O)NC5CCN(CC5)C)OC)C [NPK76-II-72-1] + N=C(N)NC(=N)NCCc1ccccc1 [Phenformin] (partner 250 µM)
How it was run: (§1)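 Lung cancer cell lines were pin-tool dosed in 1536-well plates on the day after seeding, with either a lone drug or a fixed anchor-drug dose plus five library-drug doses (not always all listed) in √10 steps. Nuclei were counted on 4× images after 5 days. Relative viability is the ratio of treated-well to vehicle-well nuclei counts, with each value a median of duplicate plates.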

NPK76-II-72-1 + OSI-027 = compound: CC1CC(=O)N(C2=CN=C(N=C2N1C3CCCC3)NC4=C(C=C(C=C4)C(=O)NC5CCN(CC5)C)OC)C [NPK76-II-72-1] + COc1cccc2cc(-c3nc([C@H]4CC[C@H](C(=O)O)CC4)n4ncnc(N)c34)[nH]c12 [OSI-027] (partner 0.5 µM)
How it was run: as §1

[2] = compound: CC1CC(=O)N(C2=CN=C(N=C2N1C3CCCC3)NC4=C(C=C(C=C4)C(=O)NC5CCN(CC5)C)OC)C [NPK76-II-72-1] + C[C@]1(O)C[C@@H](c2nc(-c3ccc4ccc(-c5ccccc5)nc4c3)c3c(N)nccn32)C1 [Linsitinib] (partner 1 µM)
How it was run: as §1

BI-2536 + Luminespib = compound: CC[C@@H]1C(=O)N(C)c2cnc(Nc3ccc(C(=O)NC4CCN(C)CC4)cc3OC)nc2N1C1CCCC1 [BI-2536] + CCNC(=O)c1noc(-c2cc(C(C)C)c(O)cc2O)c1-c1ccc(CN2CCOCC2)cc1 [Luminespib] (partner 0.01 µM)
How it was run: as §1

Cell Line | relative viability ([1]; first compound 0.01 µM) | relative viability ([1]; first compound 0.03162 µM) | relative viability ([1]; first compound 0.1 µM) | relative viability ([1]; first compound 0.3162 µM) | relative viability ([1]; first compound 1 µM) | relative viability (NPK76-II-72-1 + OSI-027; first compound 0.01 µM) | relative viability (NPK76-II-72-1 + OSI-027; first compound 0.03162 µM) | relative viability (NPK76-II-72-1 + OSI-027; first compound 0.1 µM) | relative viability (NPK76-II-72-1 + OSI-027; first compound 0.3162 µM) | relative viability (NPK76-II-72-1 + OSI-027; first compound 1 µM) | relative viability ([2]; first compound 0.01 µM) | relative viability ([2]; first compound 0.03162 µM) | relative viability ([2]; first compound 0.1 µM) | relative viability ([2]; first compound 0.3162 µM) | relative viability ([2]; first compound 1 µM) | relative viability (BI-2536 + Luminespib; first compound 0.01 µM) | relative viability (BI-2536 + Luminespib; first compound 0.03162 µM) | relative viability (BI-2536 + Luminespib; first compound 0.1 µM) | relative viability (BI-2536 + Luminespib; first compound 0.3162 µM) | relative viability (BI-2536 + Luminespib; first compound 1 µM)
NCI-H596 | 0.649 | 0.777 | 0.789 | 0.782 | 0.774 | 0.873 | 0.666 | 0.748 | 0.691 | 0.67 | 1.02 | 1.14 | 1.06 | 1.13 | 1.09 | 1.02 | 1.12 | 0.986 | 0.37 | 0.29
NCI-H322M | 0.706 | 0.935 | 0.778 | 0.817 | 0.829 | 0.558 | 0.593 | 0.534 | 0.56 | 0.672 | 0.853 | 1.1 | 0.805 | 0.961 | 0.976 | 0.844 | 0.509 | 0.439 | 0.409 | 0.303
NCI-H2228 | 0.301 | 0.345 | 0.328 | 0.324 | 0.296 | 0.427 | 0.615 | 0.547 | 0.55 | 0.724 | 0.428 | 0.572 | 0.763 | 0.66 | 0.736 | 0.161 | 0.179 | 0.183 | 0.145 | 0.124
NCI-H647 | 0.46 | 0.676 | 0.629 | 0.623 | 0.533 | 0.618 | 0.626 | 0.526 | 0.578 | 0.627 | 1.2 | 1.28 |  | 1.07 | 1.14 | 0.13 | 0.193 | 0.141 | 0.0872 | 0.116
SK-MES-1 | 0.649 | 0.718 | 0.646 | 0.643 | 0.722 | 0.585 | 0.617 | 0.583 | 0.661 | 0.742 | 1.05 | 1.07 | 0.994 | 0.995 | 1.15 | 0.802 | 0.698 | 0.23 | 0.219 | 0.195
NCI-H2085 | 0.765 | 0.735 | 0.682 | 0.668 | 0.695 | 0.577 | 0.773 | 0.68 | 0.644 | 0.771 | 0.914 | 0.997 | 0.934 | 0.87 | 0.923 | 0.396 | 0.5 | 0.384 | 0.29 | 0.262
SW 1573 | 0.33 | 0.438 | 0.33 | 0.319 | 0.452 | 0.704 | 0.65 | 0.603 | 0.599 | 0.664 | 0.808 | 0.794 | 0.721 | 0.728 | 0.681 | 0.123 | 0.117 | 0.152 | 0.122 | 0.0874
NCI-H727 | 0.49 | 0.435 | 0.481 | 0.411 | 0.672 | 0.496 | 0.637 | 0.602 | 0.564 | 0.668 | 0.233 | 0.259 | 0.27 | 0.287 | 0.331 | 0.589 | 0.324 | 0.263 | 0.4 | 0.201
NCI-H441 | 0.945 | 0.917 | 0.876 | 0.672 | 0.886 | 0.596 | 0.73 | 0.561 | 0.579 | 0.788 | 0.479 | 0.696 | 0.492 | 0.265 | 0.65 | 0.296 | 0.32 | 0.288 | 0.237 | 0.271
LOU-NH91 | 0.621 | 0.709 | 0.706 | 0.563 | 0.884 | 0.667 | 0.704 | 0.713 | 0.654 | 0.813 | 0.941 | 0.932 | 0.984 | 0.681 | 1.04 | 0.372 | 0.345 | 0.306 | 0.279 | 0.267
NCI-H3122 | 0.374 | 0.378 | 0.389 | 0.378 | 0.38 | 0.856 | 0.914 | 0.929 | 0.911 | 1.02 | 0.945 | 1.03 | 1.09 | 1.03 | 1.05 | 0.11 | 0.0932 | 0.107 | 0.0899 | 0.0757
NCI-H460 | 0.501 | 0.512 | 0.582 | 0.522 | 0.522 | 0.706 | 0.79 | 0.75 | 0.628 | 0.775 | 0.721 | 0.787 | 0.842 | 0.762 | 0.895 | 0.0287 | 0.0394 | 0.0295 | 0.0298 | 0.0252
NCI-H650 | 0.441 | 0.457 | 0.454 | 0.381 | 0.486 | 0.512 | 0.565 | 0.515 | 0.49 | 0.623 | 0.941 | 1.02 | 0.652 |  | 0.845 | 0.728 | 0.622 | 0.21 | 0.13 | 0.103
NCI-H661 | 0.278 | 0.255 | 0.282 | 0.279 | 0.245 | 0.667 | 0.772 | 0.746 | 0.588 | 0.742 | 0.536 | 0.557 | 0.546 | 0.525 | 0.519 | 0.944 | 0.936 | 0.347 | 0.296 | 0.257
NCI-H1793 | 0.3 | 0.387 | 0.38 | 0.31 | 0.432 | 0.268 | 0.322 | 0.258 | 0.27 | 0.311 | 0.771 | 0.962 | 0.971 | 0.495 | 0.742 | 0.201 | 0.167 | 0.137 | 0.168 | 0.14
NCI-H1734 | 0.374 | 0.38 | 0.379 | 0.427 | 0.425 | 0.495 | 0.625 | 0.64 | 0.589 | 0.628 | 0.896 | 0.899 | 0.883 | 0.884 | 0.904 | 0.22 | 0.157 | 0.137 | 0.122 | 0.133
LXF-289 | 0.531 | 0.587 | 0.503 | 0.516 | 0.497 | 0.704 | 0.849 | 0.684 | 0.763 | 0.783 | 0.931 | 0.977 | 0.921 | 0.925 | 1 | 0.624 | 0.533 | 0.319 | 0.0739 | 0.0875
H3255 | 0.365 | 0.326 | 0.376 | 0.31 | 0.37 | 0.445 | 0.483 | 0.531 | 0.416 | 0.588 | 0.973 | 0.994 | 0.915 | 0.677 | 1.14 | 0.846 | 1.13 | 0.691 | 0.239 | 0.359
201T | 0.423 | 0.461 | 0.407 | 0.461 | 0.433 | 0.65 | 0.677 | 0.703 | 0.673 | 0.474 | 1.01 | 0.969 | 1.06 | 1.06 | 1.09 | 1.02 | 0.999 | 1.05 | 0.349 | 0.318
NCI-H2126 | 0.52 | 0.532 | 0.508 | 0.525 | 0.557 | 0.716 | 0.734 | 0.678 | 0.738 | 0.796 | 0.756 | 0.777 | 0.701 | 0.671 | 0.752 | 0.855 | 0.512 | 0.392 | 0.278 | 0.32
HOP-62 | 0.622 | 0.648 | 0.615 | 0.637 | 0.683 | 0.784 | 0.919 | 0.917 | 0.722 | 0.978 | 0.908 | 1.05 | 0.922 | 1.05 | 0.89 | 0.949 | 0.84 | 0.419 | 0.121 | 0.188
CAL-12T | 0.563 | 0.56 | 0.562 | 0.554 | 0.619 | 0.626 | 0.787 | 0.601 | 0.683 | 0.823 | 0.721 | 1.07 | 0.737 | 0.736 | 0.808 | 0.774 | 0.229 | 0.173 | 0.124 | 0.202
NCI-H520 | 0.526 | 0.632 | 0.46 | 0.519 | 0.598 | 0.358 | 0.265 | 0.238 | 0.257 | 0.305 | 0.753 | 0.83 | 0.804 | 0.922 | 1.07 | 0.242 | 0.199 | 0.194 | 0.206 | 0.214
NCI-H1755 | 0.605 | 0.634 | 0.575 | 0.647 | 0.654 | 0.763 | 0.776 | 0.749 | 0.717 | 0.768 | 0.972 | 1 | 0.947 | 1.01 | 0.985 | 0.291 | 0.416 | 0.298 | 0.283 | 0.327
NCI-H2023 | 0.43 | 0.422 | 0.455 | 0.398 | 0.43 | 0.373 | 0.426 | 0.412 | 0.415 | 0.454 | 0.488 | 0.713 | 0.716 | 0.56 | 0.655 | 0.774 | 0.755 | 0.107 | 0.0867 | 0.0902
NCI-H2009 | 0.491 | 0.513 | 0.446 | 0.462 | 0.477 | 0.659 | 0.671 | 0.596 | 0.547 | 0.778 | 1.18 | 1.18 | 1.08 | 1.2 | 1.15 | 1.09 | 0.94 | 0.696 | 0.16 | 0.0773
